Test system: rat pancreatic ductal cell line ARIP
Test: Trans-differentiation of ARIP ductal cells, RT-PCR of beta-cell specific genes
Type: cell-based
Settings: ARIP cells cultured with GLP-1, RT-PCR
Protocol: Based on previous studies, insulin mRNA should be detectable after 48 h, GLUT-2 after 24 h and glucokinase mRNA at 72 h. […] RT-PCR for β-actin will be used as a control for cDNA loading.

glucagon-like peptide 1 [GLP-1]
time after which GLUT-2 mRNA should be detectable: 24 h
time after which insulin mRNA should be detectable: 48 h
time at which glucokinase mRNA should be detectable: 72 h

— patent US7589169B2, “Compositions for treatment with glucagon-like peptide, and methods of making and using the same” (Pharmain Corporation, priority 2002, dated 2009)
